# From US9545387B2, “Composition and kit comprising piperazine derivatives and metformin, and use thereof in the treatment of diabetes” (METABOLYS, priority 2012, dated 2017)
# Legend:
# [1] = oral glucose tolerance test (OGTT) in normal Swiss mice fasting for 17 hours, additive effect with metformin; type: in vivo; conditions: compound 1 50 mg/kg per os, metformin 300 mg/kg per os; for Glycaemia, Time 0 mn / Glycaemia, Time 90 mn: Table 1, OGTT; for Glycaemia, Time 0 mn: time 0 min; for Glycaemia, Time 90 mn: time 90 min; for drop of glycaemia area under curve after glucose load: study 1
# Protocol: The anti-diabetic action of the compounds in Examples 1 and 2 were determined via oral route in normal Swiss mice fasting for 17 hours. […] The animals were housed for a minimum time of one week after delivery (ordered from Charles River France) up until the day of experimentation in an animal facility at a temperature regulated at 21-22° C. and subjected to a light cycle (from 9 h to 17 h) and dark cycle (from 19 h to 7 h). They were fed a maintenance diet: water and food were provided ? ad libitum ? . The animals were treated via oral route 1 hour before oral administration of a glucose load (oral glucose tolerance test—OGTT). Glycaemia was measured at various times before and after this glucose load. This glycaemia was measured using a glucometer (Lifescan OneTouch Ultra, Lifescan, Johnson and Johnson Company) and OneTouch Ultra glycaemia test strips. In the Tables below n represents the number of mice included in the study. • 1. […] The 2 compounds were administered successively one hour before the glucose load. All the groups were composed of 5 mice (metformin alone, compound 1 alone, metformin+compound 1, control group with the carrier alone). Blood samples were taken at 0, 30, 60, 90 and 120 minutes after the glucose load.
# [2] = test system: liver cells of rats fasting for 48 h; conditions: rat liver cells; stated in words, no data shown; cited from earlier work
# [3] = oral glucose tolerance test (OGTT) in normal Swiss mice fasting for 17 hours, additive effect with metformin; type: in vivo; conditions: metformin 300 mg/kg per os; for Glycaemia, Time −60 mn / Glycaemia, Time 30 mn / Glycaemia, Time 60 mn / Glycaemia, Time 120 mn / Glycaemia, Time 0 mn / Glycaemia, Time 90 mn: OGTT; for Glycaemia, Time −60 mn: given 1 h before glucose load, time −60 min; for Glycaemia, Time 30 mn: time 30 min; for Glycaemia, Time 60 mn: time 60 min; for Glycaemia, Time 120 mn: time 120 min; for Glycaemia, Time 0 mn: time 0 min; for Glycaemia, Time 90 mn: time 90 min
# [4] = Table 1, compound 1 50 mg/kg per os
# [5] = Table 2, compound 2 50 mg/kg per os
# [6] = Table 3, compound 3 50 mg/kg per os
# [7] = Table 4, compound 4 50 mg/kg per os
structure (smiles),measurement,setting,value
"CN(C)C(=N)N=C(N)N [Metformin, metformin]","Glycaemia, Time 0 mn",[1],3.2 ± 0.3 mM/liter
same,"Glycaemia, Time 90 mn",[1],7.7 ± 1.0 mM/liter
same,drop of glycaemia area under curve after glucose load,[1],44.2%
same,effect on the production of 13CO2 from 2-13C-lactate,[2],reduces
same,effect on the synthesis of glucose,[2],reduces
same,"Glycaemia, Time −60 mn",[3]; [4],3.7 ± 0.3 mM/liter
same,"Glycaemia, Time 30 mn",[3]; [4],8.6 ± 0.5 mM/liter
same,"Glycaemia, Time 60 mn",[3]; [4],9.4 ± 0.8 mM/liter
same,"Glycaemia, Time 120 mn",[3]; [4],6.2 ± 0.8 mM/liter
same,"Glycaemia, Time −60 mn",[3]; [5],3.8 ± 0.1 mM/liter
same,"Glycaemia, Time 0 mn",[3]; [5],3.6 ± 0.3 mM/liter
same,"Glycaemia, Time 30 mn",[3]; [5],11.2 ± 0.3 mM/liter
same,"Glycaemia, Time 60 mn",[3]; [5],9.5 ± 0.4 mM/liter
same,"Glycaemia, Time 90 mn",[3]; [5],8.0 ± 1.3 mM/liter
same,"Glycaemia, Time 120 mn",[3]; [5],8.2 ± 0.7 mM/liter
same,"Glycaemia, Time −60 mn",[3]; [6],5.6 ± 0.3 mM/liter
same,"Glycaemia, Time 0 mn",[3]; [6],6.0 ± 0.3 mM/liter
same,"Glycaemia, Time 30 mn",[3]; [6],9.2 ± 0.8 mM/liter
same,"Glycaemia, Time 60 mn",[3]; [6],8.2 ± 0.4 mM/liter
same,"Glycaemia, Time 90 mn",[3]; [6],7.7 ± 0.2 mM/liter
same,"Glycaemia, Time 120 mn",[3]; [6],9.6 ± 0.8 mM/liter
same,"Glycaemia, Time −60 mn",[3]; [7],4.2 ± 0.3 mM/liter
same,"Glycaemia, Time 0 mn",[3]; [7],3.6 ± 0.3 mM/liter
same,"Glycaemia, Time 30 mn",[3]; [7],9.5 ± 0.6 mM/liter
same,"Glycaemia, Time 60 mn",[3]; [7],11.2 ± 1.8 mM/liter
same,"Glycaemia, Time 90 mn",[3]; [7],9.6 ± 0.9 mM/liter
same,"Glycaemia, Time 120 mn",[3]; [7],8.6 ± 0.7 mM/liter
same,drop of glycaemia area under curve after glucose load,"[3]; study 2, compound 2 50 mg/kg per os",38.7%
same,drop of glycaemia area under curve after glucose load,"[3]; study 3, compound 3 50 mg/kg per os",68.5%
same,drop of glycaemia area under curve after glucose load,"[3]; study 4, compound 4 50 mg/kg per os",54.3%
O=C(O)CCC(=O)c1ccc(OCCN2CCN(c3ccccc3F)CC2)cc1 [Compound 1],"Glycaemia, Time 0 mn",[1],4.5 ± 0.3 mM/liter
same,"Glycaemia, Time 90 mn",[1],6.5 ± 0.5 mM/liter
same,drop of glycaemia area under curve after glucose load,[1],42.5%
same,"Glycaemia, Time −60 mn",[3]; [4],5.0 ± 0.2 mM/liter
same,"Glycaemia, Time 30 mn",[3]; [4],15.2 ± 1.9 mM/liter
same,"Glycaemia, Time 60 mn",[3]; [4],10.6 ± 0.2 mM/liter
same,"Glycaemia, Time 120 mn",[3]; [4],5.3 ± 0.2 mM/liter
